Experimental data from ChEMBL document CHEMBL1255416, “Genetic and biochemical characterization of TRU-1, the endogenous class C beta-lactamase from Aeromonas enteropelogenes” (Antimicrob Agents Chemother, 2010).
pKi: −log10 of the molar value. Converted amounts (≈) assume the structure as drawn.

Columns and labels:
[1] = system: Aeromonas enteropelogenes; assay: Antimicrobial activity against Aeromonas enteropelogenes M1 hyperproducing beta-lactamase AmpC; type: functional
Escherichia coli [2] = assay: Antimicrobial activity against Escherichia coli TOP10; type: functional
[3] = system: Aeromonas enteropelogenes; assay: Activity of Aeromonas enteropelogenes Beta-lactamase TRU1
Aeromonas caviae [4] = assay: Activity of Aeromonas caviae Beta-lactamase CAV1
[5] = system: Aeromonas enteropelogenes; assay: Ratio of Kcat Km for Aeromonas enteropelogenes Beta-lactamase TRU1
Aeromonas caviae [6] = assay: Ratio of Kcat Km for Aeromonas caviae Beta-lactamase CAV1
Escherichia coli K-12 [7] = assay: Activity of Escherichia coli K-12 Beta-lactamase AmpC
Escherichia coli K-12 [8] = assay: Ratio of Kcat Km for Escherichia coli K-12 Beta-lactamase AmpC
[9] = system: Aeromonas enteropelogenes; assay: (§1) Inhibition of Aeromonas enteropelogenes Beta-lactamase TRU1
[10] = system: Aeromonas enteropelogenes; assay: Activity of Aeromonas enteropelogenes Beta-lactamase TRU1 assessed as steady state compound hydrolysis rate
[11] = system: Aeromonas enteropelogenes; assay: Ratio of Kcat Km for Aeromonas enteropelogenes Beta-lactamase TRU1 assessed as steady state compound hydrolysis rate
[12] = system: Aeromonas enteropelogenes; assay: Antimicrobial activity against Aeromonas enteropelogenes ATCC 49803 producing endogenous class C beta-lactamase TRU-1; type: functional
Escherichia coli [13] = assay: Antimicrobial activity against Escherichia coli NI540 carrying cloned class C beta-lactamase TRU-1 gene; type: functional
[14] = as §1

| Compound | MIC [1] [µg/mL] | MIC (Escherichia coli [2]) [µg/mL] | Km [3] [µM] | kcat [3] [s⁻¹] | Km (Aeromonas caviae [4]) [µM] | kcat (Aeromonas caviae [4]) [s⁻¹] | kcat/Km [5] | kcat/Km (Aeromonas caviae [6]) | Km (Escherichia coli K-12 [7]) [µM] | kcat (Escherichia coli K-12 [7]) [s⁻¹] | kcat/Km (Escherichia coli K-12 [8]) | Km [9] [µM] | Km [10] [µM] | kcat [10] [s⁻¹] | kcat/Km [11] [×10³ /M/s] | MIC [12] [µg/mL] | MIC (Escherichia coli [13]) [µg/mL] | pKi [14] |
| --- | --- | --- | --- | --- | --- | --- | --- | --- | --- | --- | --- | --- | --- | --- | --- | --- | --- | --- |
| CO/N=C(\C(=O)N[C@@H]1C(=O)N2C(C(=O)[O-])=C(C[N+]3(C)CCCC3)CS[C@H]12)c1csc(N)n1 | 2 (≈ 4.16 µM) | 0.03 (≈ 0.0624 µM) | 360 | 9.4 | 690 | 2.5 | 2.6 ×10⁴ /M/s | 3.6 ×10³ /M/s | – | – | – | – | – | – | – | – | – | – |
| CC1(C)S[C@@H]2[C@H](NC(=O)[C@H](N)c3ccccc3)C(=O)N2[C@H]1C(=O)O | – | – | 0.72 | 0.63 | – | – | 8.8 ×10⁵ /M/s | – | 3.5 | 4.2 | 1.2 ×10⁶ /M/s | – | – | – | – | – | – | – |
| CC1=C(C(=O)O)N2C(=O)[C@@H](NC(=O)[C@H](N)c3ccccc3)[C@H]2SC1 | – | – | 17 | 160 | – | – | 9.3 ×10⁶ /M/s | – | – | – | – | – | – | – | – | – | – | – |
| CO/N=C(\C(=O)N[C@@H]1C(=O)N2C(C(=O)O)=C(COC(N)=O)CS[C@H]12)c1ccco1 | – | – | – | 0.042 | – | – | 3.8 ×10⁶ /M/s | – | 0.15 | 0.15 | 1 ×10⁶ /M/s | – | – | – | – | – | – | – |
| CO/N=C(\C(=O)N[C@@H]1C(=O)N2C(C(=O)O)=C(CSc3nc(=O)c(O)nn3C)CS[C@H]12)c1csc(N)n1 | – | – | – | 0.042 | – | – | 7 ×10⁵ /M/s | – | – | – | – | 6 | – | – | – | – | – | – |
| Cc1nnc(SCC2=C(C(=O)O)N3C(=O)[C@@H](NC(=O)Cn4cnnn4)[C@H]3SC2)s1 | – | – | 120 | 0.55 | – | – | 4.6 ×10³ /M/s | – | – | – | – | – | 80 | 0.25 | 3.1 | – | – | – |
| O=C(Cc1cccs1)N[C@@H]1C(=O)N2C(C(=O)[O-])=C(C[n+]3ccccc3)CS[C@H]12 | – | – | > 600 | > 100 | 770 | 300 | 1.7 ×10⁵ /M/s | 3.9 ×10⁵ /M/s | 4 | 38 | 9.5 ×10⁶ /M/s | – | – | – | – | – | – | – |
| CC1(C)S[C@@H]2[C@H](NC(=O)[C@H](N)c3ccc(O)cc3)C(=O)N2[C@H]1C(=O)O [AMOXICILLIN] | 4 (≈ 10.9 µM) | 2 (≈ 5.47 µM) | – | – | – | – | – | – | – | – | – | – | – | – | – | 2 (≈ 5.47 µM) | 32 (≈ 87.6 µM) | – |
| C[C@H]1[C@H](NC(=O)/C(=N\OC(C)(C)C(=O)O)c2csc(N)n2)C(=O)N1S(=O)(=O)O [AZTREONAM] | 0.125 (≈ 0.287 µM) | – | > 500 | – | – | – | – | – | – | – | – | – | – | – | – | – | – | – |
| CO/N=C(\C(=O)N[C@@H]1C(=O)N2C(C(=O)O)=C(COC(C)=O)CS[C@H]12)c1csc(N)n1 [CEFOTAXIME] | 32 (≈ 70.3 µM) | 0.06 (≈ 0.132 µM) | – | 0.015 | 0.1 | 0.2 | 1.7 ×10⁷ /M/s | 2 ×10⁶ /M/s | 1.7 | 0.17 | 1 ×10⁵ /M/s | – | – | – | – | 0.032 (≈ 0.0703 µM) | 8 (≈ 17.6 µM) | – |
| CO[C@@]1(NC(=O)Cc2cccs2)C(=O)N2C(C(=O)O)=C(COC(N)=O)CS[C@@H]21 [CEFOXITIN] | 32 (≈ 74.9 µM) | 4 (≈ 9.36 µM) | – | 0.88 | 0.4 | 0.5 | 3.5 ×10⁷ /M/s | 1.3 ×10⁶ /M/s | 0.65 | 0.2 | 3 ×10⁵ /M/s | 0.025 | – | – | – | 8 (≈ 18.7 µM) | 128 (≈ 299 µM) | – |
| CO/N=C(\C(=O)N[C@@H]1C(=O)N2C(C(=O)[O-])=C(C[n+]3cccc4c3CCC4)CS[C@H]12)c1csc(N)n1 [CEFPIROME] | 4 (≈ 7.77 µM) | 0.03 (≈ 0.0583 µM) | 85 | 23 | – | – | 2.7 ×10⁵ /M/s | – | – | – | – | – | – | – | – | 0.125 (≈ 0.243 µM) | 0.5 (≈ 0.972 µM) | – |
| CC(C)(O/N=C(\C(=O)N[C@@H]1C(=O)N2C(C(=O)[O-])=C(C[n+]3ccccc3)CS[C@H]12)c1csc(N)n1)C(=O)O [CEFTAZIDIME] | 16 (≈ 29.3 µM) | 0.125 (≈ 0.229 µM) | – | 0.11 | 0.6 | 0.2 | 9.2 ×10⁵ /M/s | 3.3 ×10⁵ /M/s | – | – | – | 0.12 | – | – | – | 0.125 (≈ 0.229 µM) | 8 (≈ 14.6 µM) | – |
| CC(=O)OCC1=C(C(=O)O)N2C(=O)[C@@H](NC(=O)Cc3cccs3)[C@H]2SC1 [CEPHALOTHIN] | > 256 | 4 (≈ 10.1 µM) | 45 | 470 | 500 | 540 | 1 ×10⁷ /M/s | 1.1 ×10⁶ /M/s | 42 | 300 | 7 ×10⁶ /M/s | – | – | – | – | > 256 | 256 (≈ 646 µM) | – |
| C[C@@H](O)[C@H]1C(=O)N2C(C(=O)O)=C(SCCNC=N)C[C@H]12 [IMIPENEM ANHYDROUS] | 0.125 (≈ 0.418 µM) | – | > 500 | – | – | – | – | – | – | – | – | – | – | – | – | 0.125 (≈ 0.418 µM) | 0.25 (≈ 0.835 µM) | – |
| CC1(C)S[C@@H]2[C@H](NC(=O)Cc3ccccc3)C(=O)N2[C@H]1C(=O)O [PENICILLIN G] | – | – | – | 27 | 8.7 | 5 | 1.4 ×10⁷ /M/s | 5.7 ×10⁵ /M/s | 4.4 | 45 | 1 ×10⁷ /M/s | – | – | – | – | – | – | 5.70 |
| CCN1CCN(C(=O)N[C@@H](C(=O)N[C@@H]2C(=O)N3[C@@H]2SC(C)(C)[C@@H]3C(=O)O)c2ccccc2)C(=O)C1=O [PIPERACILLIN] | 4 (≈ 7.73 µM) | 1 (≈ 1.93 µM) | – | 0.54 | – | – | 2.7 ×10⁶ /M/s | – | – | – | – | – | – | – | – | 0.25 (≈ 0.483 µM) | 8 (≈ 15.5 µM) | 6.70 |
| CC1(C)S[C@@H]2[C@H](NC(=O)[C@H](C(=O)O)c3ccsc3)C(=O)N2[C@H]1C(=O)O [TICARCILLIN] | 8 (≈ 20.8 µM) | 4 (≈ 10.4 µM) | – | – | – | – | – | – | – | – | – | – | – | – | – | 0.125 (≈ 0.325 µM) | 64 (≈ 166 µM) | – |
